Experimental data as given in PMC3408453, “A Foldamer-Dendrimer Conjugate Neutralizes Synaptotoxic β-Amyloid Oligomers” (PLoS ONE, 2012).
Values joined by “and” are separate entries in the source; they are usually repeats but may differ in a detail not shown here. Equal values may be shown once.

Molecular target: T1, Aβ oligomers (Homo sapiens, UniProt P05067)
T1 construct: a depsipeptide derivative of Aβ(1–42) was utilized; made in house; host or cells: chemical peptide synthesis (no expression host)
Assay: Isothermal titration calorimetry (ITC) with Aβ oligomers
Assay type: binding
Conditions: 72 μM Aβ oligomer, 288 K
Experimental: Binding of 7 to the Aβ oligomers was monitored by means of isothermal titration calorimetry (ITC). […] The titrations were run at 288 K in order to improve the signal to noise ratio, and just above the precipitation limit as the ITC method is sensitive to the thermal noise caused by the stirring of large particles. […] These values strongly supported tight binding between the Aβ oligomer species and 7.
Isothermal titrations were performed with a Microcal VP-ITC microcalorimeter. The binding experiments were performed in PBS pH 7.4. The buffer solution was degassed. The concentrations of the ligands and Aβ were corrected for the material content. In individual titrations, 10 μL of ligand was injected from the computer-controlled 300-μL microsyringe at intervals of 300 s into the Aβ oligomer solution dissolved in the same buffer as the ligand. The microsyringe stirring was set to 295 rpm. All measurements were made at 288 K. The Aβ concentrations in the cell were either 72 μM or 36 μM, and the concentrations of 7 were 175 μM and 222 μM respectively. The total ligand concentration was set in the syringe so that the titration stopped when the precipitation became excessive. Control experiments were performed by injecting the ligand into a cell containing buffer with no target, and the heats of dilution were subtracted from those measured in the presence of Aβ. Titrations were also performed with buffer in the syringe and Aβ oligomer sample in the cell to check for the heat response of Aβ dilution itself. The dilution heat of the Aβ oligomer samples was constant and negligible. Since the target is inherently inhomogeneous, and an a priori model of the binding events is not available,. the experimental data were fitted to the two independent site binding model by using a nonlinear least-squares procedure, with ΔHb, ΔHb', Ka, Ka' (association constants), N and N' (number of binding sites for monomer), as adjustable parameters. The exothermic peaks appearing after the fully precipitated phase was reached, were omitted from the regression.

T1 sequence (P05067 672-713 limits assumed): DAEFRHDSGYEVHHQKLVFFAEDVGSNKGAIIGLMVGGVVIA

`N=C(N)NCCC[C@@H](CC(=O)N[C@H]1CCCC[C@@H]1C(=O)N[C@H]1CCCC[C@@H]1C(=O)N[C@@H](CC(=O)O)CC(=O)N[C@H]1CCCC[C@@H]1C(=O)NCC(=O)NCC(=O)N[C@@H](CSC1CC(=O)N(CCC(=O)NCCNC(=O)CCN(CCC(=O)NCCNC(=O)CCN2C(=O)CC(SC[C@H](NC(=O)CNC(=O)CNC(=O)[C@H]3CCCC[C@@H]3NC(=O)C[C@H](CC(=O)O)NC(=O)[C@H]3CCCC[C@@H]3NC(=O)[C@H]3CCCC[C@@H]3NC(=O)C[C@H](CCCNC(=N)N)NC(=O)[C@H]3CCCC[C@@H]3N)C(N)=O)C2=O)CCN(CCC(=O)NCCNC(=O)CCN2C(=O)CC(SC[C@H](NC(=O)CNC(=O)CNC(=O)[C@H]3CCCC[C@@H]3NC(=O)C[C@H](CC(=O)O)NC(=O)[C@H]3CCCC[C@@H]3NC(=O)[C@H]3CCCC[C@@H]3NC(=O)C[C@H](CCCNC(=N)N)NC(=O)[C@H]3CCCC[C@@H]3N)C(N)=O)C2=O)CCC(=O)NCCNC(=O)CCN2C(=O)CC(SC[C@H](NC(=O)CNC(=O)CNC(=O)[C@H]3CCCC[C@@H]3NC(=O)C[C@H](CC(=O)O)NC(=O)[C@H]3CCCC[C@@H]3NC(=O)[C@H]3CCCC[C@@H]3NC(=O)C[C@H](CCCNC(=N)N)NC(=O)[C@H]3CCCC[C@@H]3N)C(N)=O)C2=O)C1=O)C(N)=O)NC(=O)[C@H]1CCCC[C@@H]1N` (stereo partly shown) [Compound 7] was tested, and the “N (ITC stoichiometry, number of binding sites for monomer; first or single stage)” value was 0.041±0.00089 and 0.041, the “N' (ITC stoichiometry, lower affinity interaction)” value was 0.18±0.002 and 0.18 and the “ΔHb (ITC; first binding step for 7, single stage for 8)” value was 7.24 ± 0.05 kcal/mol. For the same molecule, the “ΔHb' (ITC, lower affinity interaction)” value was 2.58 ± 0.02 kcal/mol.
